The results in this text go back to US9976122B2, “Methods and compositions for generating an immune response by inducing CD40 and pattern recognition receptor adapters” (BAYLOR COLLEGE OF MEDICINE, priority 2008, dated 2018).

One assay relates to human SOCS1. As to the kind of experiment: Real time Q-PCR assay for human SOCS1 in DCs. The format is cell-based. The settings on record: stimulus by itself.
In assay [1] the test system is Naïve CD4+CD45RA+ T cells. The format is cell-based, human. The following applies: restimulated with TTp30 at day 7.
For a further assay, the system named is human DCs. Kind of assay: Cytokine ELISA (IL-12p70, IL-6) of culture supernatants of human monocyte-derived DCs. It is filed as cell-based. The following applies: LPS and CD40L-stimulated DCs. Background: In an ELISA, binding on a coated surface is turned into a signal by an enzyme label.

Text for human SOCS1: Total RNA was purified and reverse transcribed with random hexamers using SuperScript II RTase (Invitrogen, Carlsbad, Calif.). mRNA levels were quantified in DCs by subjecting cDNA to TaqMan PCR analysis using the GeneAmp 5700 Sequence Detection System (Applied Biosystems, Foster City, Calif.). Pre-developed sequence detection reagents (Applied Biosystems) specific for human SOCS1 and 18S rRNA, including forward and reverse primers as well as a fluorogenic TaqMan FAM-labeled hybridization probe, were supplied as mixtures and were used at 1 microliter/20 microliter PCR. Samples were run in duplicates. The level of SOCS1 expression in each sample was normalized to the level of 18S rRNA from the same sample using the comparative 2-delta delta CT method (Livak K J, Schmittgen T D. Analysis of relative gene expression data using real-time quantitative PCR and the 2(-Delta Delta C(T)) Method. Methods. 2001; 25:402-408).
Finally, the induction of the suppressor of cytokine signaling (SOCS1) was evaluated.

Consider Lipopolysaccharide [LPS], for which the “SOCS1 induction in DCs” value in the assay on human SOCS1 was “up-regulated”.

For monophosphoryl lipid A [MPL], in assay [1], the “IFN-gamma production in CD4+ T cells” value was “not induced”.

B1: CD40L: CD40 ligand, a TNF family member that binds to the CD40 receptor (protein)
chain: MIETYNQTSPRSAATGLPISMKIFMYLLTVFLITQMIGSALFAVYLHRRLDKIEDERNLHEDFVFMKTIQRCNTGERSLSLLNCEEIKSQFEGFVKDIMLNKEETKKENSFEMQKGDQNPQIAAHVISEASSKTTSVLQWAEKGYYTMSNNLVTLENGKQLTVKRQGLYYIYAQVTFCSNREASSQAPFIASLCLKSPGRFERILLRAANTHSSAKPCGQQSIHLGGVFELQPGASVFVNVTDPSQVSHGTGFTSFGLLKL
With B1, the “IL-12p70 expression after removal of LPS stimulation” value with human DCs is recorded as “ceased when LPS stimulation was removed”.
